Measured values as given in PubChem BioAssay (NCI).
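Each compound was tested at five concentrations against cells in 96-well plates for 48 hours. TGI is the concentration that stops growth completely.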

Columns and labels:
Test in all cases: growth of human tumour cells (NCI), 48 h
SW-620 colon = test system: SW-620 colon
RPMI-8226 leukemia = test system: RPMI-8226 leukemia
DU-145 prostate = test system: DU-145 prostate
SF-539 CNS = test system: SF-539 CNS
MDA-MB-435 = test system: MDA-MB-435
TK-10 renal = test system: TK-10 renal
SN12C renal = test system: SN12C renal
M14 melanoma = test system: M14 melanoma
SNB-19 CNS = test system: SNB-19 CNS
NCI-H460 lung = test system: NCI-H460 lung
UO-31 renal = test system: UO-31 renal

Row | SMILES | TGI (SW-620 colon) | TGI (RPMI-8226 leukemia) | TGI (DU-145 prostate) | TGI (SF-539 CNS) | TGI (MDA-MB-435) | TGI (TK-10 renal) | TGI (SN12C renal) | TGI (M14 melanoma) | TGI (SNB-19 CNS) | TGI (NCI-H460 lung) | TGI (UO-31 renal)
1 | CN(C)CCCn1nc(N)c2nc3cc(Cl)ccc3nc21 | > 100 µM | > 100 µM | > 100 µM | > 100 µM | > 100 µM | > 100 µM | > 100 µM | 47.4 µM | > 100 µM | > 100 µM | > 92.6 µM
2 | Cc1c2c(OCCN3CCCCC3)nn(C)c(=O)c2c(C)n1-c1ccccc1 | > 100 µM | 95.1 µM | > 100 µM | 74.9 µM | > 100 µM | > 100 µM | > 100 µM | 33.4 µM | > 100 µM | > 100 µM | 29.1 µM
3 | CCOC(=O)c1sc2[n+](c1C)C(=O)/C(=C/c1ccc([N+](=O)[O-])cc1)S2 | 73.5 µM | 67.3 µM | 92.3 µM | 54.7 µM | 46.2 µM | 50.7 µM | > 100 µM | > 100 µM | > 100 µM | 45 µM | 33.4 µM
4 | FC(F)(F)c1cccc(-c2nc3ccccc3c3c2[C@@]2(N4CCCC4)CCCC[C@@H]32)c1 | > 100 µM | 41.4 µM | > 100 µM | > 100 µM | 59.3 µM | 89.8 µM | > 100 µM | > 100 µM | > 100 µM | > 100 µM | 48.9 µM
5 | COc1c(O)cc2c(c1O)C(=O)/C(=C/c1ccc(O)cc1)CO2 | 83.4 µM | 37.2 µM | 78.1 µM | 48.9 µM | > 100 µM | 85 µM | 55.5 µM | 61.1 µM | > 100 µM | > 100 µM | 65.1 µM
6 | COC(C)(C)C1(O)CCC(C)CC1=O (centres undefined) | > 100 µM | > 100 µM | > 100 µM | > 100 µM | > 100 µM | > 100 µM | > 100 µM | > 100 µM | > 100 µM | > 100 µM | > 100 µM
7 | S=C(c1c[nH]c2ccccc12)N1CCN(Cc2ccccc2)CC1 | 31.6 µM | 51.9 µM | > 100 µM | 32.9 µM | 28.8 µM | > 100 µM | 30.1 µM | 26.9 µM | 35.5 µM | 67.6 µM | 21.5 µM
8 | Cc1ccc(NC(=O)CSc2nc(=O)[nH]c3nc[nH]c23)cc1 | > 100 µM | > 100 µM | > 100 µM | 52.8 µM | > 100 µM | > 100 µM | > 100 µM | > 100 µM | > 100 µM | > 100 µM | > 100 µM
9 | Cc1cn([C@@H]2O[C@H](CO[Si](C)(C)C(C)(C)C)[C@]3(O[C@H]3C(=O)NN)[C@H]2O[Si](C)(C)C(C)(C)C)c(=O)[nH]c1=O | 20 µM | 9.19 µM | 21.8 µM | 16.3 µM | 23.1 µM | 26.9 µM | 13.9 µM | 20.4 µM | 21.7 µM | 15.6 µM | 27.7 µM
10 | O=[N+]([O-])c1cc2c(cc1/C=N/n1c(CO)nc3ccccc31)OCO2 | > 100 µM | > 100 µM | > 100 µM | > 100 µM | > 100 µM | > 100 µM | > 100 µM | > 100 µM | > 100 µM | > 100 µM | > 100 µM
11 | c1c[nH]c(C23C4C5C6C4C2C6C53)n1 (centres undefined) | > 100 µM | > 100 µM | > 100 µM | > 100 µM | > 100 µM | > 100 µM | > 100 µM | > 100 µM | > 100 µM | > 100 µM | > 100 µM
12 | COc1cc2c(cc1OC)C1(COc3cc(O)c(O)c(O)c3C1=O)C2 (centres undefined) | > 50 µM | > 50 µM | > 50 µM | > 50 µM | > 50 µM | > 50 µM | > 50 µM | > 50 µM | > 50 µM | > 50 µM | > 50 µM
13 | CCN(CC)CCNC(=O)c1cn2c(ccc3sc4ccccc4c(=O)c32)n1 | 20.3 µM | 29 µM | 25 µM | 24.9 µM | 54 µM | 19.1 µM | 23.7 µM | 29 µM | 27.5 µM | 14.9 µM | 21 µM
14 | CCCCCCCCCCCCCCCC(=O)N(CCCCCCCCCCC(=O)O)CC(O)C(O)C(OC1OC(CO)C(O)C(O)C1O)C(O)CO (centres undefined) | 52.5 µM | 49.8 µM | > 100 µM | 54.9 µM | > 100 µM | > 100 µM | 40.1 µM | 50.2 µM | 52.9 µM | > 100 µM | > 100 µM
15 | O=C(Cc1ccccc1)Nn1c(-c2ccccc2)nc2ccccc2c1=O | > 100 µM | > 100 µM | > 100 µM | > 100 µM | > 100 µM | > 100 µM | > 100 µM | > 100 µM | > 100 µM | > 100 µM | > 100 µM
16 | C=C1C(=O)O[C@@H]2C[C@]3(C)CC[C@]4(C)[C@H](CC[C@@H]5[C@@]6(C)CCC(=O)C(C)(C)[C@@H]6CC[C@]54C)[C@H]3[C@H]12 | 55.4 µM | 5.8 µM | 34.7 µM | 38.2 µM | 25.4 µM | 30.3 µM | 36.4 µM | 31.3 µM | > 60.6 µM | 35 µM | 28.3 µM
17 | Oc1ccc(Cl)cc1CN1CCN(Cc2cc(Cl)ccc2O)C1 | 10.5 µM | 15.3 µM | 11.6 µM | 2.81 µM | 7.92 µM | 9.69 µM | 5.19 µM | 2.87 µM | 12.2 µM | 4.96 µM | 2.19 µM
18 | COc1cc2c(=O)cnoc2cc1O | > 100 µM | > 100 µM | > 100 µM | > 100 µM | > 100 µM | > 100 µM | > 100 µM | > 100 µM | > 100 µM | > 100 µM | > 100 µM
19 | COc1ccc2cc(CN3CCC(C4CCNCC4)CC3)ccc2c1 | 3.42 µM | 4.61 µM | 15 µM | 4.03 µM | 3.58 µM | 21.3 µM | 23 µM | 3.15 µM | 18.3 µM | 4.4 µM | 6.29 µM
